Results published in US5488060A, “Substituted thiadiazoles, compositions containing them and their use as antimicrobial and marine antifouling agents” (The Dow Chemical Company, priority 1994, dated 1996).
Values after ≈ are worked out from the molar mass of the structure shown. Where two headings read alike, the source gives them in different places.

How the values were obtained:
[1] = tested on: Aureobasidium pullulan (Ap); test: Minimum inhibitory concentration (MIC) in malt yeast agar, Aureobasidium pullulan; assay type: cell-based
Outline: (§1)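 Malt yeast agar pH 5.5 + cpd (from 1% soln in acetone/water) at final 500–zero ppm, poured at 48 °C, dried 24 h. Inoculum: 7-day 30 °C slants suspended in saline/octylphenoxy polyethoxy ethanol, diluted 1:9, replicator-spotted. Incubated 30 °C; read 48 h yeast, 72 h fungi.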

Fusarium oxysporum (Fo) = test: Minimum inhibitory concentration (MIC) in malt yeast agar, Fusarium oxysporum; assay type: cell-based
Outline: as §1

[2] = tested on: Enterobacter aerogenes (Ea); test: Minimum inhibitory concentration (MIC) in nutrient agar, Enterobacter aerogenes; assay type: cell-based; conditions: Klebsiella aerogenes
Outline: (§2)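 Neutral (pH 6.8) and alkaline (pH 8.2) nutrient agar plates carrying 1.0–500 ppm compound (final) are replicator-inoculated with each bacterium at 10^8 CFU/mL. After 48 h incubation at 30° C, the lowest compound concentration without growth is recorded.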

[3] = tested on: Saccharomyces cerevisiae (Sc); test: Minimum inhibitory concentration (MIC) in malt yeast agar, Saccharomyces cerevisiae; assay type: cell-based
Outline: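 Plates of pH 5.5 malt yeast agar carried test compound dispersed from a one percent acetone–water solution, final 500 to zero ppm. After diluted slant-culture suspensions were applied, plates were kept at 30 °C and examined at 72 h for fungi, 48 h for yeast.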

Escherichia coli (Ec) = test: Minimum inhibitory concentration (MIC) in nutrient agar, Escherichia coli; assay type: cell-based
Outline: as §2

[4] = tested on: Salmonella choleraesuis (Se); test: Minimum inhibitory concentration (MIC) in nutrient agar, Salmonella choleraesuis; assay type: cell-based; conditions: Salmonella enterica
Outline: as §2

marine organisms = test: Marine antifouling rating of coated test panels exposed to the marine environment; conditions: scale 10 (completely free of growth) to 0 (completely covered); for Marine Antifouling Rating, 6 Week Test, Top Panel / Marine Antifouling Rating, 6 Week Test, Bottom Panel: 6 weeks; for Marine Antifouling Rating, 6 Week Test, Top Panel / Marine Antifouling Rating, 10 Week Test, Top Panel: topside; for Marine Antifouling Rating, 6 Week Test, Bottom Panel / Marine Antifouling Rating, 10 Week Test, Bottom Panel: underside; for Marine Antifouling Rating, 10 Week Test, Top Panel / Marine Antifouling Rating, 10 Week Test, Bottom Panel: 10 weeks
Procedure: Test panels are prepared from clear, rigid polyvinyl chloride film that is 0.381×10-3 m thick and has one textured surface. The test panels are 0.1524 m by 0.1524 m squares that have 0.00635 m holes punched at corners on 0.127 m centers. A 0.102 square template, with a 0.067 m diameter hole at the center, is attached to the center of the textured surface of the test panels.
A candidate marine antifoulant compound (1.0 g) is stirred into a resinous latex binder (9.0 g). A portion of the compound/binder mixture (1.5 g) is added to the center of the test panel and uniformly spread over the circular area inside the template.
Water is added dropwise as needed to properly spread the compound/binder mixture. The template prevents the compound/binder mixture from spreading beyond the uncovered area. […] The template is then removed. The test panel is then allowed to dry for 8 to 12 hours at room temperature.
Two test panels are prepared for each candidate marine antifoulant compound. Two control test panels are also prepared by only treating with the resinous latex binder. One test panel of each candidate marine […] compound is attached over a white background to the topside of an exposure support apparatus. The second test panel is attached over a black background to the underside of the exposure support apparatus. The exposure support apparatus is placed horizontally 0.0254 m under a marine surface with the white background topside facing up.
After being removed from the exposure support apparatus, each test panel is inspected and rated for marine organism growth on both the treated and untreated areas of the test panel, The marine organisms present on the treated and untreated areas are noted. The presence of algae spores and bacterial slime are noted but not included in rating each test panel. The test panels are rated on a scale from 10 (representing completely free of marine organism growth) to 0 (representing completely covered with marine organism growth).
In addition, test panels were prepared using tributyl tin oxide, a known marine antifouling compound.

[5] = tested on: Pseudomonas aeruginosa (Pa); test: Minimum inhibitory concentration (MIC) in nutrient agar, Pseudomonas aeruginosa; assay type: cell-based; conditions: 30° C., 48 hours, read-out: Minimum Inhibitory Concentration, Pa
Outline: as §2

Proteus vulgaris (Pv) = test: Minimum inhibitory concentration (MIC) in nutrient agar, Proteus vulgaris; assay type: cell-based
Outline: as §2

Bacillus subtilis (Bs) = test: Minimum inhibitory concentration (MIC) in nutrient agar, Bacillus subtilis; assay type: cell-based
Outline: as §2

[6] = 48 h, pH 8.2, read-out: Minimum Inhibitory Concentration, Ea
[7] = pH 6.8, nutrient agar, 30° C., 48 hours, read-out: Minimum Inhibitory Concentration, SC
[8] = pH 6.8, nutrient agar, 30° C., 48 hours, read-out: Minimum Inhibitory Concentration, Pv
[9] = 48 h, pH 8.2, read-out: Minimum Inhibitory Concentration, Bs
[10] = pH 6.8, nutrient agar, 30° C., 48 hours, read-out: Minimum Inhibitory Concentration, Bs

| SMILES | MIC [2, 6] | MIC [4, 7] | Marine Antifouling Rating, 6 Week Test, Top Panel (marine organisms) | Marine Antifouling Rating, 6 Week Test, Bottom Panel (marine organisms) | Marine Antifouling Rating, 10 Week Test, Top Panel (marine organisms) | Marine Antifouling Rating, 10 Week Test, Bottom Panel (marine organisms) | MIC ([5]; pH 8.2, nutrient agar) | MIC (Proteus vulgaris (Pv); [8]) | MIC (Bacillus subtilis (Bs); [9]) | MIC (Bacillus subtilis (Bs); [10]) | other results |
| --- | --- | --- | --- | --- | --- | --- | --- | --- | --- | --- | --- |
| N#CSc1nsnc1-c1ccccc1 [Example I, 4-Phenyl-3-thiocyanato-1,2,5-thiadiazole] | 500 µg/mL (≈ 2280 µM) | 50 µg/mL (≈ 228 µM) | 7 | 7 | 4 | 3 | > 500 µg/mL | 50 µg/mL (≈ 228 µM) | 250 µg/mL (≈ 1140 µM) | < 10 µg/mL | MIC ([1]; pH 5.5, malt yeast agar, 30° C., read-out: Minimum Inhibitory Concentration, Ap): < 1 µg/mL; MIC (Fusarium oxysporum (Fo); pH 5.5, malt yeast agar, 30° C., 72 hours for fungi, read-out: Minimum Inhibitory Concentration, Fo): 2.5 µg/mL (≈ 11.4 µM); MIC ([2]; pH 6.8, nutrient agar, 30° C., 48 hours, read-out: Minimum Inhibitory Concentration, Ea): 100 µg/mL (≈ 456 µM); MIC ([3]; pH 5.5, malt yeast agar, 30° C., 48 hours for yeast, read-out: Minimum Inhibitory Concentration, SC): < 1 µg/mL; MIC (Escherichia coli (Ec); 48 h, pH 6.8, read-out: Minimum Inhibitory Concentration, Ec): 50 µg/mL (≈ 228 µM); MIC (Escherichia coli (Ec); 48 h, pH 8.2, read-out: Minimum Inhibitory Concentration, Ec): > 500 µg/mL; MIC ([4]; 48 h, pH 8.2, read-out: Minimum Inhibitory Concentration, SC): > 500 µg/mL; MIC ([5]; pH 6.8, nutrient agar): > 500 µg/mL; MIC (Proteus vulgaris (Pv); 48 h, pH 8.2, read-out: Minimum Inhibitory Concentration, Pv): 500 µg/mL (≈ 2280 µM) |
| N#CSCSc1nsnc1-c1ccccc1 [Example XVI, 4-Phenyl-3-thiocyanato-methylthio-1,2,5-thiadiazole] | 500 µg/mL (≈ 1880 µM) | 25 µg/mL (≈ 94.2 µM) | 9 | 9 | 4 | 9 | 250 µg/mL (≈ 942 µM) | 50 µg/mL (≈ 188 µM) | 250 µg/mL (≈ 942 µM) | < 10 µg/mL | MIC ([1]; pH 5.5, read-out: Minimum Inhibitory Concentration, Ap): 2.5 µg/mL (≈ 9.42 µM); MIC (Fusarium oxysporum (Fo); 72 h, pH 5.5, read-out: Minimum Inhibitory Concentration, Fo): 5 µg/mL (≈ 18.8 µM); MIC ([2]; 48 h, pH 6.8, read-out: Minimum Inhibitory Concentration, Ea): 50 µg/mL (≈ 188 µM); MIC ([3]; 48 h, pH 5.5, read-out: Minimum Inhibitory Concentration, SC): 2.5 µg/mL (≈ 9.42 µM); MIC (Escherichia coli (Ec); pH 6.8, nutrient agar, 30° C., 48 hours, read-out: Minimum Inhibitory Concentration, Ec): 25 µg/mL (≈ 94.2 µM); MIC (Escherichia coli (Ec); pH 8.2, nutrient agar, 30° C., 48 hours, read-out: Minimum Inhibitory Concentration, Ec): 250 µg/mL (≈ 942 µM); MIC ([4]; pH 8.2, nutrient agar, 30° C., 48 hours, read-out: Minimum Inhibitory Concentration, SC): 250 µg/mL (≈ 942 µM); MIC (Proteus vulgaris (Pv); pH 8.2, nutrient agar, 30° C., 48 hours, read-out: Minimum Inhibitory Concentration, Pv): 250 µg/mL (≈ 942 µM) |
